Patent US7678820B2, “Hetero compound” (Astellas Pharma Inc., priority 2006, dated 2010)
Counter-ions that a name gives are not always drawn.

system: number of the lymphocytes in peripheral blood; assay: Evaluation of peripheral blood lymphopenia in rat; assay type: in vivo; details: Rattus norvegicus, Lymphocyte, po, 24 h, read-out: ED50 value after 24 hours
Description: 2) Evaluation of Peripheral Blood Lymphopenia in Rat
The peripheral blood lymphopenia in rat was measured at 24 hours after oral administration in the following manner. Six- to ten-week-old male Lewis rats (Japan Charles river laboratories) were randomly divided into the groups (n=3), and the compound of the present invention was suspended in 0.5% methyl cellulose-containing distilled water, and orally administered with a sonde. At 24 hours after administration, under ether anesthesia, 0.2 ml of blood was collected from ocular fundus. To the blood sample were immediately added EDTA/4K and heparin to prevent clotting, and the number of the lymphocytes in blood was measured with an automatic haematology analyzer (Sysmex Corp.; XT-2000i). For the reduction of the number of the lymphocytes in peripheral blood by the compound of the present invention, the percentage with the number of the lymphocytes in groups administered with 0.5% methyl cellulose-containing distilled water being set at 100%, as performed at the same time was used, and the dose to cause 50% reduction of the number of the lymphocytes in peripheral blood by administration of the compound of the present invention was defined an ED50 value (mg/kg).

With CC(Oc1ccc(-c2nc(-c3cccnc3N)no2)cc1C(F)(F)F)C(F)(F)F (centres unmarked) [Comparative Compound 2] the ED50 was 8.8 mg/kg.

same assay, conditions: Rattus norvegicus, Lymphocyte; male Lewis rats, oral administration, 50% reduction of the number of lymphocytes in peripheral blood at 24 hours after administration; read-out: ED50 value after 24 hours

First: CNc1ncccc1-c1noc(-c2ccc(OC(C)C(F)(F)F)c(C(F)(F)F)c2)n1 (centres unmarked) [Comparative Compound 1]
Second: CNc1ncccc1-c1noc(-c2ccc(O[C@@H](C)C(F)(F)F)c(Cl)c2)n1.Cl [Comparative Compound 4]
The ED50 of the first is lower: 1.4 mg/kg for the first, over 10 mg/kg for the second.

First: Cc1ccc(Cl)cc1-c1noc(-c2ccc(OC(C)C(F)(F)F)c(C(F)(F)F)c2)n1 (centres unmarked) [Comparative Compound 3]
Second: C[C@H](Oc1ccc(-c2nc(-c3ccc4[nH]cnc4c3)no2)cc1C(F)(F)F)C(F)(F)F.Cl [Ex 119]
The ED50 of the first is 52-fold higher: 3.7 mg/kg for the first, 0.071 mg/kg for the second.

Going from CNc1ncccc1-c1noc(-c2ccc(OC(C)C(F)(F)F)c(Cl)c2)n1.Cl (centres unmarked) [Comparative Compound 5] to C[C@H](Oc1ccc(-c2nc(-c3ccc4[nH]cnc4c3)no2)cc1Cl)C(F)(F)F.Cl [Ex 199], the ED50 falls from over 10 mg/kg to 0.26 mg/kg.

same assay, conditions: rat peripheral blood lymphopenia, 24 hours after oral administration

With C[C@H](Oc1ccc(-c2nc(-c3ccc4[nH]cnc4c3)no2)cc1C(F)(F)F)C(F)(F)F.Cl [Ex 119] the “ED50 value after 24 hours, conclusion in words (persistence)” value was “high ED50 value even after 24 hours, indicating persistence”.
In the case of C[C@H](Oc1ccc(-c2nc(-c3ccc4[nH]cnc4c3)no2)cc1Cl)C(F)(F)F.Cl [Ex 199], the “ED50 value after 24 hours, conclusion in words (persistence)” value is reported as “high ED50 value even after 24 hours, indicating persistence”.

molecular target: T1, human S1P1 (Homo sapiens, UniProt P21453); assay: GTP[γ-35S] bond assay using the membrane of a human S1P1 expressing cell (S1P1 agonist activity); assay type: biochemical; details: membrane of human S1P1 expressing CHO cell; concentration causing 50% of the maximum GTP[γ-35S] reaction
T1 construct: expressed in transfected cells; membrane fraction used
T1 sequence (P21453 whole entry): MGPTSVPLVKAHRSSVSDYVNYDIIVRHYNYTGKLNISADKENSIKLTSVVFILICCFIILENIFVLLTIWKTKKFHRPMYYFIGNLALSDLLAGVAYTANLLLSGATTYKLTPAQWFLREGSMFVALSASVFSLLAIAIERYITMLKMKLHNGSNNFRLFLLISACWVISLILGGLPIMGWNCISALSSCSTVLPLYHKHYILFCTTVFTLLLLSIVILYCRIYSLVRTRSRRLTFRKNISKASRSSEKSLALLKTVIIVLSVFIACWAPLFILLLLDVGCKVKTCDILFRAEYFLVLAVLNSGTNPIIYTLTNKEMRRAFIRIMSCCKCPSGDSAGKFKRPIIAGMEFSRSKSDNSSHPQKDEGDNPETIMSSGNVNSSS
Description: 1) Evaluation of a Receptor Agonist Activity by a GTP[γ-^35S] Bond Assay Using the Membrane of a Human S1P1 Expressing Cell
The in vitro S1P1 agonist activity of the compound of the present invention was evaluated by the increase in the functional bonding activity into the G-Protein of a GTP[γ-^35S] using the membrane of a human S1P1 expressing cell. A cDNA encoding a human S1P1 was cloned from a human colorectal cDNA library, and introduced to an expression vector pcDNA3.1 to construct a S1P1-pcDNA3.1. Then, by Lipofectamine 2000 (GIBCO), the S1P1-pcDNA3.1 was transfected into a CHO cell, and cultured in a Ham's F-12 culture medium containing 10% fetal bovine serum, 100 U/mL Penicillin, 100 μg/mL Streptomycin, and 1 mg/mL G418 disulfate, to obtain a stable, G418-resistant strain. The cultured human S1P1 expressing cells were isolated in a 1 mM EDTA/2Na-containing PBS, and disrupted under ice-cooling by a homogenizer made of glass in a 1 mM Tris HCl (pH 7.4) buffer solution containing 0.1 mM EDTA and a […]. It was centrifuged at […], and a supernatant was further centrifuged at 4° C. for 60 min at 100,000×g, and suspended in a 10 mM Tris HCl (pH 7.4) buffer solution containing 1 mM EDTA. The obtained membrane (0.13 mg/mL) and […] GTP[γ-^35S] […] The FilterMate was dried at 50° C. for 60 min, and Microscinti-o (Packard) was added thereto for measurement by a liquids scintillation counter for a microplate (Packard, TOP count). For evaluation of the human S1P1 agonist activity of the compound of the present invention and the comparative compound, the percentages with the rate of a maximum reaction to make the GTP[γ-^35S] bonds saturated in the presence of the compound being set at 100%, and the rate of the reaction of the GTP[γ-^35S] bonds in the absence of the compound being set at 0% was used, a non-linear regression curve was plotted, and a concentration to cause an agonist activity operating 50% of the maximum reaction was defined as an EC50 value (nM).

Compared with C[C@H](Oc1ccc(-c2nc(-c3ccc4[nH]cnc4c3)no2)cc1C(F)(F)F)C(F)(F)F.Cl [Ex 119], CC(Oc1ccc(-c2nc(-c3ccc4[nH]cnc4c3)no2)cc1C(F)(F)F)C(F)(F)F (centres unmarked) [Example 48] is 1.5-fold higher in EC50: 4.3 nM for the first, 6.5 nM for the second.

C[C@H](Oc1ccc(-c2nc(-c3ccc4[nH]cnc4c3)no2)cc1Cl)C(F)(F)F.Cl [Ex 199] and CC(Oc1ccc(-c2nc(-c3ccc4[nH]cnc4c3)no2)cc1Cl)C(F)(F)F (centres unmarked) [Example 53] are within 1.5-fold of each other in EC50: 5 nM for the first, 5.8 nM for the second.

Cc1nc2cc(-c3noc(-c4ccc(OC(C)C(F)(F)F)c(C(F)(F)F)c4)n3)ccc2[nH]1 (centres unmarked) [Example 2, 2-methyl-5-{5-[3-(trifluoromethyl)-4-(2,2,2-trifluoro-1-methylethoxy)phenyl]-1,2,4-oxadiazol-3-yl}-1H-benzimidazole hydrochloride] and CC(Oc1ccc(-c2nc(-c3ccc4[nH]c(N)nc4c3)no2)cc1C(F)(F)F)C(F)(F)F (centres unmarked) [Example 51] are the same in EC50: 13 nM for the first, 13 nM for the second.

CC(C)Oc1ccc(-c2nc(-c3cccc4c3ccn4CC(N)=O)no2)cc1C(F)(F)F [Example 5, 2-(4-{5-[4-isopropoxy-3-(trifluoromethyl)phenyl]-1,2,4-oxadiazol-3-yl}-1H-indol-1-yl)acetamide] and C[C@H](Oc1ccc(-c2nc(-c3cccc4c3ccn4CC(N)=O)no2)cc1C(F)(F)F)C(F)(F)F [Example 12, 2-[4-(5-{3-(trifluoromethyl)-4-[(1S)-2,2,2-trifluoro-1-methylethoxy]phenyl}-oxadiazol-3-yl)-1H-indol-1-yl]acetamide] are within 1.5-fold of each other in EC50: 5.5 nM for the first, 4.7 nM for the second.

First: NC(=O)Cn1ccc2c(-c3noc(-c4ccc(OC(CF)CF)c(Cl)c4)n3)cccc21 [Example 6, 2-[4-(5-{3-chloro-4-[2-fluoro-1-(fluoromethyl)ethoxy]phenyl}-1,2,4-oxadiazol-3-yl)-1H-indol-1-yl]acetamide]
Second: O=C(Cn1ccc2c(-c3noc(-c4ccc(OC(CF)CF)c(Cl)c4)n3)cccc21)NCCO [Example 197]
The EC50 of the first is 2.8-fold lower: 1.2 nM for the first, 3.3 nM for the second. The first is the more potent here.

Compared with CC(C)Oc1ccc(-c2nc(-c3cccc4c3ccn4CC(N)=O)no2)cc1Cl [Example 8], CC(Oc1ccc(-c2nc(-c3cccc4c3ccn4CC(N)=O)no2)cc1Cl)C(F)(F)F (centres unmarked) [Example 164] is 1.9-fold lower in EC50: 5.4 nM for the first, 2.8 nM for the second. The second is the more potent here.

Compared with CC(=O)N1CCc2c(-c3noc(-c4ccc(OC(C)C(F)(F)F)c(C(F)(F)F)c4)n3)cccc21 (centres unmarked) [Example 15, 1-acetyl-4-{5-[3-(trifluoromethyl)-4-(2,2,2-trifluoro-1-methylethoxy)phenyl]-1,2,4-oxadiazol-3-yl}indoline], CC(Oc1ccc(-c2nc(-c3cccc4c3CCN4C)no2)cc1C(F)(F)F)C(F)(F)F (centres unmarked) [Example 152] is 3.6-fold higher in EC50: 2.1 nM for the first, 7.6 nM for the second.

CC(Oc1ccc(-c2nc(-c3ccc4[nH]c(CCS(C)(=O)=O)nc4c3)no2)cc1C(F)(F)F)C(F)(F)F (centres unmarked) [Example 23, 2-[2-(methylsulfonyl)ethyl]-5-{5-[3-(trifluoromethyl)-4-(2,2,2-trifluoro-1-methylethoxy)phenyl]-1,2,4-oxadiazol-3-yl}-1H-benzimidazole hydrochloride] and C[C@@H](Oc1ccc(-c2nc(-c3ccc4[nH]cnc4c3)no2)cc1C(F)(F)F)C(F)(F)F [Example 120] are within 1.5-fold of each other in EC50: 6.8 nM for the first, 4.6 nM for the second.

CC(Oc1ccc(-c2nc(-c3cccc4c3CCN4)no2)cc1C(F)(F)F)C(F)(F)F (centres unmarked) [Example 26, 4-{5-[3-(trifluoromethyl)-4-(2,2,2-trifluoro-1-methylethoxy)phenyl]-1,2,4-oxadiazol-3-yl}indoline] and CC(Oc1ccc(-c2nc(-c3cccc4[nH]ccc34)no2)cc1C(F)(F)F)C(F)(F)F (centres unmarked) [Example 67] are within 1.5-fold of each other in EC50: 4.7 nM for the first, 3.7 nM for the second.

First: Cc1c(-c2noc(-c3ccc(OC(C)C(F)(F)F)c(C(F)(F)F)c3)n2)ccc2[nH]cnc12 (centres unmarked) [Example 37]
Second: CC(Oc1ccc(-c2nc(-c3ccnc4[nH]ccc34)no2)cc1C(F)(F)F)C(F)(F)F (centres unmarked) [Example 60]
The EC50 of the first is 2.6-fold higher: 5.4 nM for the first, 2.1 nM for the second.

Compared with CC(Oc1ccc(-c2nc(-c3ccc4nc[nH]c4c3)no2)cc1C#N)C(F)(F)F (centres unmarked) [Example 54], CC(Oc1ccc(-c2nc(-c3ccc4nc[nH]c4c3)no2)cc1Br)C(F)(F)F (centres unmarked) [Example 64] is 2.5-fold higher in EC50: 2.3 nM for the first, 5.7 nM for the second. The first is the more potent here.

First: CC(Oc1ccc(-c2nc(-c3cccc4nccn34)no2)cc1C(F)(F)F)C(F)(F)F (centres unmarked) [Example 59]
Second: CC(Oc1ccc(-c2nc(-c3cccc4c3ccn4C)no2)cc1C(F)(F)F)C(F)(F)F (centres unmarked) [Example 151]
The EC50 of the first is 2.9-fold lower: 3.8 nM for the first, 11 nM for the second. The first is the more potent here.

CC(Oc1ccc(-c2nc(-c3ccc4cn[nH]c4c3)no2)cc1C(F)(F)F)C(F)(F)F (centres unmarked) [Example 65] and CC(Oc1ccc(-c2nc(-c3ccc4nc[nH]c4c3)no2)cc1C(F)F)C(F)(F)F (centres unmarked) [Example 87] are within 1.5-fold of each other in EC50: 4 nM for the first, 3.7 nM for the second.

Compared with NC(=O)Cn1ccc2c(-c3noc(-c4ccc(C5CCCC5)c(C(F)(F)F)c4)n3)cccc21 [Example 81], NC(=O)Cn1ccc2c(-c3noc(-c4ccc(OC(CF)CF)c(C(F)(F)F)c4)n3)cccc21 [Example 158] is 3.3-fold lower in EC50: 5.9 nM for the first, 1.8 nM for the second.

C=CCOc1ccc(-c2nc(-c3ccc4[nH]cnc4c3)no2)cc1C(F)(F)F [Example 106] and FC(F)COc1ccc(-c2nc(-c3ccc4[nH]cnc4c3)no2)cc1C(F)(F)F [Example 110] are within 1.5-fold of each other in EC50: 8.7 nM for the first, 6.2 nM for the second.

Going from FC(F)(F)c1cc(-c2nc(-c3ccc4nc[nH]c4c3)no2)ccc1Oc1ccccc1 [Example 121] to C[C@@H](Oc1ccc(-c2nc(-c3ccc4[nH]cnc4c3)no2)cc1Cl)C(F)(F)F [Example 200], the EC50 falls from 12 nM to 3.6 nM (3.3-fold).

NC(=O)Cn1ccc2c(-c3noc(-c4cnc(OC(CF)CF)c(Cl)c4)n3)cccc21 [Example 143] and C[C@H](Oc1ncc(-c2nc(-c3cccc4c3ccn4CC(N)=O)no2)cc1Cl)C(F)(F)F [Example 173] are within 1.5-fold of each other in EC50: 5.4 nM for the first, 4.3 nM for the second.

Going from Cc1cc(-c2nc(-c3cccc4c3ccn4CC(N)=O)no2)ccc1O[C@@H](C)C(F)(F)F [Example 147] to CC(Oc1ccc(-c2nc(-c3cccc4c3ccn4CC(N)=O)no2)cc1C#N)C(F)(F)F (centres unmarked) [Example 163], the EC50 falls from 3.2 nM to 1.9 nM (1.7-fold). The second is the more potent here.

Going from CC(Oc1ccc(-c2nc(-c3cccc4c3ccn4CC(N)=O)no2)cc1C(F)(F)F)C(F)(F)F (centres unmarked) [Example 181] to C[C@H](Oc1ccc(-c2nc(-c3cccc4c3ccn4CC(=O)NCCO)no2)cc1C(F)(F)F)C(F)(F)F [Example 194], the EC50 falls from 4.7 nM to 2 nM (2.4-fold). The second is the more potent here.

COCC(=O)n1ccc2c(-c3noc(-c4ccc(OC(C)C(F)(F)F)c(C(F)(F)F)c4)n3)cccc21 (centres unmarked) [Example 182] and CC(C)Oc1ccc(-c2nc(-c3cccc4c3ccn4CC(=O)NCCO)no2)cc1C(F)(F)F [Example 196] are within 1.5-fold of each other in EC50: 4.2 nM for the first, 5.3 nM for the second.

Cc1cc(-c2nc(-c3cccc4c3ccn4CC(=O)NCCO)no2)ccc1O[C@@H](C)C(F)(F)F [Example 193] showed an EC50 of 6.8 nM.
